Laboratory results published in US20160310417A1, “Formulations and Methods For Targeted Ocular Delivery of Therapeutic Agents” (Emory University, priority 2013, published 2016).

Key:
IOP in the rabbit eye = assay: Intraocular pressure (IOP) pharmacodynamics in normotensive rabbit, tonometer; assay type: in vivo, New Zealand White rabbits; details: for IOP decrease, treated eye: within 1 hour
rabbit cornea = assay: Safety of intrastromal delivery: corneal surface inspection and histology; assay type: in vivo
Text: To identify possible microanatomical changes after intrastromal delivery using microneedles, we conducted a histological safety study using four study groups: (i) The untreated group received no suture and no other treatments. (ii) The suture-only group received a suture at day 0, but no other treatments. (iii). The suture with non-coated microneedles group received a suture on day 0 and four non-coated microneedles inserted at the site of the suture on day 4. […] Animals were sacrificed on days 1, 6, 10 and/or 18 for histological analysis. Suture placement and microneedle application were carried out as described above. High magnification images were taken every day in all study groups to assess possible gross corneal damage. Corneal tissues were fixed in 10% formalin and embedded in paraffin. Hematoxylin-eosin (HE) or periodic acid-Schiff (PAS) staining was performed.
The rabbit corneas with and without microneedle treatment and with and without suture placement were evaluated to assess the safety of microneedle insertion by both magnified inspection of the corneal surface in vivo and histological examination of tissue sections obtained at various times after microneedle treatment Immediately after insertion and removal of the microneedle, a small puncture in the corneal epithelium was evident with a size on the order of 200 μm (data not shown). […]

[1] = Intrastromal delivery of bevacizumab from coated microneedles into rabbit cornea in vivo (ELISA)
[2] = test system: corneal neovascularization; assay: Suture-induced corneal neovascularization model, neovascularization area by image analysis; assay type: in vivo, New Zealand rabbits; details: for average neovascularization area lower compared to no treatment group: MN-1bolus: intrastromal 1.1 μg, single microneedle; for reduction of neovascularization compared to untreated eye: SC-high: subconjunctival injection 2500 μg bolus on day 4
Experimental: All animal studies adhered to the ARVO statement for the Use of Animals in Ophthalmic and Vision Research and were approved by the Georgia Institute of Technology Institutional Animal Care and Use Committee (IACUC). Male and female New Zealand rabbits (2.2-2.5 kg) were anesthetized with ketamine (17 mg/kg), xylazine (8.5 mg/kg) and acepromazine (0.5 mg/kg) subcutaneously. Following topical administration of 0.5% proparacaine hydrochloride to minimize discomfort, a single 7.0-gauge silk suture (Ethicon TG140, Blue Ash, Ohio) was placed at midstromal depth 1 mm away from the limbus of the rabbit cornea to generate corneal neovascularization associated with minor traumatic injury. This silk suture was left in the rabbit cornea for the duration of the experiment to induce neovascularization. For each animal, a suture was placed in one eye and the companion eye was left untreated.
During the experiment, the rabbit eye was imaged using a digital camera (Cannon Rebel Tli, Melvile, N.Y.) with macroscopic lens (Cannon MP-E 65 mm) at 3× magnification every two days after placement of the suture. The area of neovascularization was quantified using Adobe Photoshop (Adobe, Jan Jose, Calif.).
Prior to all treatment procedures except for topical delivery, rabbits were anesthetized with ketamine (6 mg/kg), xylazine (4 mg/kg) and acepromazine (0.25 mg/kg) subcutaneously. A reduced dose of anesthesic compared to the suture insertion procedure was used to reduce possible stress to the animals. A single drop of topical proparacaine ophthalmic solution was given as anesthesia. The duration of each study was 18 days and, after the suture insertion at the beginning of the experiment, 4 days were allowed for neovascularization to develop. All the treatments were done on day 4 except as indicated below.
The high-dose group (SC-high) received 2500 μg of bevacuzumab (in 100 μL, i.e., Avastin). The low-dose group (SC-low) received 4.4 μg of bevacuzumab (Avastin was diluted with HBSS to 100 μL).

CC(C)OC(=O)CCC/C=C\C[C@@H]1[C@@H](CC[C@@H](O)CCc2ccccc2)[C@H](O)C[C@@H]1O [latanoprost]
change in IOP (IOP in the rabbit eye; standard human dose of 2.5 μg, rabbit model): no change in IOP was observed

FC(F)OC(Cl)C(F)(F)F (stereo not shown) [isoflurane]
time for effects on IOP to reverse (IOP in the rabbit eye; after inhalation stopped): 15 to 30 min
IOP elevation (IOP in the rabbit eye; during 15 min inhalation of escalating dose): ~5 mmHg

CS(=O)(=O)NC(=O)CCC/C=C\C[C@H]1C(=O)C[C@@H](O)[C@@H]1/C=C/[C@@H](O)COc1ccccc1 [sulprostone, Sulprostone]
duration of ocular hypotension, treated eye (IOP in the rabbit eye; single topical eye drop 2.5 μg): about 8 hours
maximum IOP decrease, treated eye (IOP in the rabbit eye; single topical eye drop 2.5 μg, at approximately 2 hours): ~3.4 mmHg
ratio of topical to supraciliary dose for similar pharmacodynamic response (AUCPD comparison) (IOP in the rabbit eye; sulprostone, topical 2.5 μg vs supraciliary, Equation (2)): 101
persistence of ocular hypotension, treated eye (IOP in the rabbit eye; supraciliary 0.005 μg in 10 μL): approximately 6 hours
peak IOP drop, treated eye (IOP in the rabbit eye; supraciliary 0.005 μg in 10 μL, at 1 hour): ~2.8 mmHg
persistence of IOP decrease (IOP in the rabbit eye; supraciliary 0.025 μg in 10 μL): at least 9 hours
IOP decrease, treated eye (IOP in the rabbit eye; supraciliary 0.025 μg in 10 μL): ~3.1 mmHg

brimonidine tartrate
supraciliary dose for similar pharmacodynamic response, fold less than topical delivery (AUCPD) (IOP in the rabbit eye; brimonidine, topical 75 μg vs supraciliary): 115 fold
time for IOP to return to normal (IOP in the rabbit eye; single topical drop 75 μg): ≤ 6 h
peak IOP reduction, treated eye (IOP in the rabbit eye; single topical drop 75 μg, at 2 hours): approximately 4 mmHg
IOP changes in treated and contralateral eyes (IOP in the rabbit eye; supraciliary 0.015 μg in 10 μL): no significant IOP changes
persistence of IOP drop (IOP in the rabbit eye; supraciliary 0.75 μg in 10 μL): about 5 hours
peak IOP drop, treated eye (IOP in the rabbit eye; supraciliary 0.75 μg in 10 μL, at 2 hours): ~3 mmHg
persistence of IOP decrease (IOP in the rabbit eye; supraciliary 1.5 μg in 10 μL): about 9 hours
IOP decrease, treated eye (IOP in the rabbit eye; supraciliary 1.5 μg in 10 μL): ~3.3 mmHg

Bevacizumab
corneal histology, sutured eyes with versus without microneedle treatment (rabbit cornea; 1.1 μg bevacizumab by microneedle four days after suture): no notable differences
corneal surface after treatment with bevacizumab-coated microneedles (rabbit cornea; magnified inspection in vivo, daily over 18 days): only a microscopic puncture in the corneal epithelium that disappeared within one day and was not associated with any complications
coated bevacizumab delivered into the cornea ([1]; coated microneedles, 10 dip coats, inserted 60 sec, rabbit cornea in vivo): 52%
amount of bevacizumab delivered per microneedle ([1]; microneedles coated with 20 dips): 1.14 ± 0.11 µg
average neovascularization area lower compared to no treatment group ([2]; day 4, day 10): 34%
average neovascularization area lower compared to no treatment group ([2]; day 4, day 18): 10%
reduction of neovascularization area ([2]; MN-1bolusx3: intrastromal 1.1 μg on days 4, 6 and 8 (total 3.3 μg), day 10): 50%
reduction of neovascularization area compared to untreated eyes ([2]; MN-4bolus: intrastromal 4.4 μg, four coated microneedles, day 4, day 10): 65%
reduction of neovascularization compared to untreated eyes ([2]; MN-hollow: intrastromal 50 μg (2 μL of 25 μg/μL) by hollow microneedle, day 4, day 10): 74%
reduction of neovascularization compared to untreated eye ([2]; day 10): 62%
reduction of neovascularization compared to untreated eye ([2]; day 18): 29%
effect on neovascularization compared to untreated eyes ([2]; SC-low: subconjunctival injection 4.4 μg bolus on day 4): no significant effect
reduction of neovascularization compared to untreated eyes ([2]; TOP: topical eye drops 3 per day from day 4, total 52,500 μg, day 18): 6%
